Experimental data as given in patent US10532040B2, “Methods of treating cancer with herbacetin” (REGENTS OF THE UNIVERSITY OF MINNESOTA, priority 2011, dated 2020).
“Also recorded” adds a separate entry of the source.

Key:
[1] = test system: SKH-1 hairless mice, DMBA/TPA; test: TPA-induced skin cancer prevention study, 30 weeks (Example 2); type: in vivo, mouse
Method: For the effect of herbacetin on preventing TPA-induced skin cancer, SKH-1 hairless mice were divided into 5 groups of 26-30 mice/group. All mice were initiated with 200 nmol DMBA applied topically on the dorsal surface. Two weeks later, TPA (17 nmol) was applied topically on the dorsal surface twice a week for a total of 30 weeks. Four groups of mice were treated with herbacetin (20, 100, 200, or 500 nmol) 30 min before application of TPA.

[2] = test system: HCT116 colon cancer cells; test: anchorage independent HCT116 colon cancer cell growth; type: cell-based
Method: FIGS. 3A-3H. Anticancer effect of herbacetin. (a) The effect of herbacetin on ODC activity in colon cancer cell lines was measured as the release of CO2 from L-[1-C^14] ornithine. […] (b) The effect of herbacetin and DFMO on the growth of colon cancer cells and (c) TPA-induced JB6 cell growth was compared. Cells were incubated for 72 h and growth was estimated using the MTS assay. (d) The effect of herbacetin on anchorage independent HCT116 colon cancer cell growth and (e) TPA-induced JB6 cell transformation was assessed. Cells were incubated for 2 weeks and then colonies were counted using a microscope and the Image-Pro PLUS (v.6) computer software program. The effect of herbacetin on AP-1 reporter activity in (f) HCT116 colon cancer cells and (g) TPA-induced AP-1 reporter activity in JB6 mouse epidermal cells was analyzed using the substrates included in the reporter assay system. Data are represented as means±S.D. of triplicate values from three independent experiments and the asterisk (*) indicates a significant (p<0.05) effect of herbacetin or DFMO compared to untreated or TPA-treated controls. (h) The effect of herbacetin on the phosphorylation of ERK1 and ERK2 in HCT116 colon cancer cells was determined by Western blotting. Similar results were observed from two independent experiments.

APC^min+ mice = test: APC^min+ mouse model, 8 weeks; type: in vivo
From the text: Male C57BL/6J^(Min/+) mice were obtained from Jackson Laboratory and maintained under “specific pathogen-free” conditions according to the guidelines established by the University of Minnesota Institutional Animal Care and Use Committee. APC^min+ male mice were bred with C57BL/6J APC wildtype female mice. The progeny were genotyped by PCR assay to determine whether they were heterozygous for the min allele or were homozygous wildtype. APC^min+ male or female progeny were randomly assigned to groups after weaning at 3 weeks. Mice (5˜6 weeks old) were divided into 4 groups: 1) untreated vehicle group (n=12); 2) mice treated with 0.4 mg herbacetin/kg of body weight (n=13); 3) mice treated with 2 mg herbacetin/kg of body weight (n=13); and mice treated with 100 mg difluoromethylornithine (DFMO)/kg of body weight (n=10). Herbacetin, DFMO, or vehicle was injected 3 times a week for 8 weeks.

ODC = biological target: T1, ODC (Homo sapiens, UniProt P11926); test: ODC activity in colon cancer cells (HCT116, DLD-1 lysates); type: cell-based; design: endogenous in cells; host or cells: HCT116 and DLD-1 colon cancer cells (lysates); conditions: compared with DFMO
T1 sequence (P11926 1-461): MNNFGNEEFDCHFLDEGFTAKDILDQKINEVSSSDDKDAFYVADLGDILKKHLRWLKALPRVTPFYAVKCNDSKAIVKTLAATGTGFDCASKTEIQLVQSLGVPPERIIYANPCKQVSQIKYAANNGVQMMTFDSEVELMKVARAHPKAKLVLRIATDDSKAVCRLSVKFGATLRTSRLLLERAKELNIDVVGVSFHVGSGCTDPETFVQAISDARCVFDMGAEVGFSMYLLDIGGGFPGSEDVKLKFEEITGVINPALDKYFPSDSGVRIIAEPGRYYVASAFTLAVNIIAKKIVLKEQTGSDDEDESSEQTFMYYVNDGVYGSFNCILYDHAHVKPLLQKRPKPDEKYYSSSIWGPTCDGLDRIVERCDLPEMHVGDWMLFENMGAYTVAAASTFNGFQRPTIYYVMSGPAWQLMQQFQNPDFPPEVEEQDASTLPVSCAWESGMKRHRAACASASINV
Method: FIGS. 5A-5E. The effect of herbacetin on ODC activity was assessed in (a) DLD-1 and (b) HCT116 colon cancer cells. Cell lysates were incubated for 15 min with reaction buffer and different doses of herbacetin or DFMO and then incubated at 37° C. for 1 h. Herbacetin (c) and kaempferol (d) were modeled as allosteric inhibitors with the ODC crystal structure. (e) The effect of herbacetin or kaempferol on ODC activity was assessed using a human ODC recombinant protein. Each reaction was incubated at 37° C. for 1 h and ODC activity was measured as the release of CO2 from L-[1-C^14] ornithine. Data are represented as means±S.D. of triplicate values. The asterisk (*) indicates a significant difference (p<0.05) between herbacetin-treated samples compared to untreated or kaempferol-treated samples.
ODC activity was measured as the release of CO2 from L-[1-C^14] ornithine as previously described ([…]).

[3] = herbacetin 0.4 or 2 mg/kg, DFMO 100 mg/kg, 3 times/week for 8 weeks, vs vehicle

SMILES: O=c1c(O)c(-c2ccc(O)cc2)oc2c(O)c(O)cc(O)c12 [herbacetin, 3,5,7,8,4′-Pentahydroxyflavone]
- tumor growth induced by TPA ([1]; herbacetin 20, 100, 200 or 500 nmol 30 min before TPA, 30 weeks): decreased tumor growth
- mice developing papillomas (incidence) ([1]; vs untreated control mice): Fewer mice developed papillomas
- number of papillomas ([1]; vs untreated control mice): fewer papillomas (dose-dependent)
- tumor size ([1]; vs untreated controls): significantly smaller tumors
- effectiveness relative to DFMO in suppressing anchorage independent growth ([2]; HCT116, 2 weeks): at least 20 fold
- potency relative to DFMO ([2]; general statement, test not specified): 20-50 times
- anemia (bloody stools) (APC^min+ mice; 0.4 or 2 mg/kg, 8 weeks): seemed to reduce anemia
- tolerability: signs of toxicity, body weight loss (APC^min+ mice; 8 weeks treatment): without overt signs of toxicity or significant body weight loss
- polyp number (APC^min+ mice; [3]): significantly suppressed
- polyp size (APC^min+ mice; [3]): significantly suppressed
- overall appearance of mice (APC^min+ mice; vs vehicle- or DFMO-treated mice): appeared healthier
- suppression of ODC activity (ODC): more effectively; also recorded: markedly more effective than DFMO
